Experimental data as given in ChEMBL document CHEMBL6074662, “Antibacterial, Antibiofilm, and Anti-inflammatory Effects of a Novel Thrombin-Derived Peptide in Sepsis Models: Insights into Underlying Mechanisms” (J Med Chem, 2024).
The source made the active and inactive calls. No cut-off for these calls is given here.

Key:
Staphylococcus aureus [1] = experiment: Antibacterial activity against methicillin-resistant Staphylococcus aureus CCARM 3090 incubated for 24 hrs by CLSI based broth microdilution method; format: functional
Pseudomonas aeruginosa [2] = experiment: Antibacterial activity against multidrug-resistant Pseudomonas aeruginosa CCARM 2109 incubated for 24 hrs by CLSI based broth microdilution method; format: functional
Acinetobacter baumannii [3] = experiment: Antibacterial activity against carbapenem-resistant Acinetobacter baumannii NMS 1915 incubated for 24 hrs by CLSI based broth microdilution method; format: functional
Escherichia coli [4] = experiment: Antibacterial activity against Escherichia coli KCTC 1682 incubated for 24 hrs in presence of KCl by CLSI based broth microdilution method; format: functional
Escherichia coli [5] = experiment: Antibacterial activity against Escherichia coli KCTC 1682 incubated for 24 hrs in presence of CaCl2 by CLSI based broth microdilution method; format: functional
[6] = Effect on secondary structure of drug in TFE assessed as fold increase in formation of alpha-helical conformation at 150 uM by CD analysis relative to HVF18; format: physicochemical
[7] = Effect on secondary structure of drug in SDS assessed as fold increase in formation of alpha-helical conformation at 150 uM by CD analysis relative to HVF18; format: physicochemical
Pseudomonas aeruginosa [8] = experiment: Eradication of biofilm formation in multi-drug resistant Pseudomonas aeruginosa CCARM 2095 at 1 to 128 uM incubated for 12 hrs by CLSM analysis; format: functional, organism-based; settings: dose 1-128 µM
Staphylococcus aureus [9] = experiment: Synergistic antibacterial activity against methicillin-resistant Staphylococcus aureus CCARM 3089 assessed as fractional inhibitory concentration index incubated for 24 hrs in presence of Ciprofloxacin by broth microdilution method; format: functional
Pseudomonas aeruginosa [10] = experiment: Synergistic antibacterial activity against multi-drug resistant Pseudomonas aeruginosa CCARM 2095 assessed as fractional inhibitory concentration index incubated for 24 hrs in presence of Ciprofloxacin by broth microdilution method; format: functional
RAW264.7 [11] = experiment: Anti-inflammatory activity in mouse RAW264.7 cells assessed as decrease in LPS-induced TNF-alpha level at 5 uM pretreated for 1 hr followed by LPS treatment for 16 hrs by ELISA relative to control; format: functional; settings: time 17 hrs
RAW264.7 [12] = experiment: Anti-inflammatory activity in mouse RAW264.7 cells assessed as decrease in LPS-induced IL-6 level at 2.5 uM pretreated for 1 hr followed by LPS treatment for 16 hrs by ELISA relative to control; format: functional; settings: time 17 hrs
RAW264.7 [13] = experiment: Anti-inflammatory activity in mouse RAW264.7 cells assessed as decrease in LPS-induced IL-6 level at 5 uM pretreated for 1 hr followed by LPS treatment for 16 hrs by ELISA relative to control; format: functional; settings: time 17 hrs
Lipopolysaccharide (LPS) = experiment: Displacement of BODIPY-TR-cadaverine from cell-free LPS (unknown origin) at 16 uM incubated for 30 mins by fluorescence based assay relative to control
[14] = molecular target: T1, Toll-like receptor 4 (Mus musculus) (UniProt Q9QUK6); experiment: Inhibition of LPS-induced TLR4 activation in mouse RAW264.7 cells assessed as decrease in ERK phosphorylation at 2 uM pretreated for 1 hr followed by LPS treatment for 30 mins by Western blot analysis relative to control; format: cell-based; settings: time 90.0 min
T1 sequence (whole entry): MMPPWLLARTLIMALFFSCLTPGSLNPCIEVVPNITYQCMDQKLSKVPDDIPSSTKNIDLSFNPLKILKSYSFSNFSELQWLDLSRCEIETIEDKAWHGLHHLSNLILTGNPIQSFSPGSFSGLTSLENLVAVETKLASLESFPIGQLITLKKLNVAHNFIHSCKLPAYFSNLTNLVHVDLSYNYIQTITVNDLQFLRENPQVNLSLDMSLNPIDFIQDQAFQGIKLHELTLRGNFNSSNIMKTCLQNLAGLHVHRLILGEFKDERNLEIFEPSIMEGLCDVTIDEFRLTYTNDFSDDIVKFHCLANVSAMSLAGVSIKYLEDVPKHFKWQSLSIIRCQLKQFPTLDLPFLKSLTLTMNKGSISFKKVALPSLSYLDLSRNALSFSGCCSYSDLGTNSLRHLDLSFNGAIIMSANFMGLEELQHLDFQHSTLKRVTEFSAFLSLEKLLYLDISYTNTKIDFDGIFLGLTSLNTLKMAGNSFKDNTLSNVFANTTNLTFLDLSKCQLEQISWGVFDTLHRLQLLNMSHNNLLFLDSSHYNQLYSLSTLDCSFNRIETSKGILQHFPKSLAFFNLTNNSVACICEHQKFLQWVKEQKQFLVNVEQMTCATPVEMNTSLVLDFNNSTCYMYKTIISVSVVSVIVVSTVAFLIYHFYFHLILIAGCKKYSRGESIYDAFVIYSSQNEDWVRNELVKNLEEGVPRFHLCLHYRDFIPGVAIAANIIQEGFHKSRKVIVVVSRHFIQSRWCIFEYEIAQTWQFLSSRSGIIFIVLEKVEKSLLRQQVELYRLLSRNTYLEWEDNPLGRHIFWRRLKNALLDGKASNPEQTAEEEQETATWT

[15] = molecular target: T1, Toll-like receptor 4 (Mus musculus); experiment: Inhibition of LPS-induced TLR4 activation in mouse RAW264.7 cells assessed as decrease in phosphorylated NF-kappaB nuclear translocation at 10 uM pretreated for 1 hr followed by LPS treatment for 30 mins by CLSM analysis; format: cell-based; settings: time 90.0 min
Acinetobacter baumannii [16] = experiment: Antibacterial activity against carbapenem-resistant Acinetobacter baumannii-induced sepsis shock in ICR mouse model assessed as bacterial growth inhibition in liver at 1 mg/kg, ip pretreated with compound for 1 hr followed by bacterial infection measured after 16 hrs relative to control; format: functional; settings: time 17 hrs
Mus musculus [17] = experiment: (§1) Antiseptic activity in sepsis shock ICR mouse model infected with carbapenem-resistant Acinetobacter baumannii assessed as decrease in BUN level in serum at 1 mg/kg, ip pretreated with compound for 1 hr followed by bacterial infection measured after 16 hrs relative to control; format: functional; parameters: scale not given: the % may be the effect or the level left; settings: time 17 hrs
Mus musculus [18] = experiment: as §1, with “recovery of neutrophil infiltration” for “decrease”, “lungs” for “BUN level in serum”, “by H and E staining based analysis” for “relative to control”; format: functional, organism-based; settings: time 17.0 hrs
Mus musculus [19] = experiment: (§2) Antiseptic activity in sepsis shock ICR mouse model infected with carbapenem-resistant Acinetobacter baumannii assessed as reduction in bacterial count in liver at 1 mg/kg, ip pretreated with compound for 1 hr followed by bacterial infection measured after 16 hrs relative to control; format: functional; parameters: scale not given: the % may be the effect or the level left; settings: time 17 hrs
Mus musculus [20] = experiment: as §2, with “pre-infected” for “pretreated”, “bacteria” for “compound for 1 hr”, “compound administration 3 hrs post-infection” for “bacterial infection”; format: functional; parameters: scale not given: the % may be the effect or the level left
Mus musculus [21] = experiment: (§3) Antiseptic activity in sepsis shock ICR mouse model infected with carbapenem-resistant Acinetobacter baumannii assessed as reduction in bacterial count in kidney at 1 mg/kg, ip pre-infected with bacteria followed by compound administration 1 hr post-infection measured after 16 hrs relative to control; format: functional; parameters: scale not given: the % may be the effect or the level left
Mus musculus [22] = experiment: as §3, with “3 hrs” for “1 hr”; format: functional; parameters: scale not given: the % may be the effect or the level left
Mus musculus [23] = experiment: Antiseptic activity in sepsis shock ICR mouse model infected with carbapenem-resistant Acinetobacter baumannii assessed as reduction in serum IL-6 level at 1 mg/kg, ip pretreated with compound for 3 hrs followed by bacterial infection measured after 16 hrs relative to control; format: functional; parameters: scale not given: the % may be the effect or the level left; settings: time 19 hrs
Mus musculus [24] = experiment: Antiseptic activity in sepsis shock ICR mouse model infected with carbapenem-resistant Acinetobacter baumannii assessed as reduction in serum IL-6 level at 1 mg/kg, ip pre-infected with bacteria followed by compound administration 1 hr post-infection measured after 16 hrs relative to control; format: functional; parameters: scale not given: the % may be the effect or the level left

H-GVFRLKKWLKKVKKWGK-NH2
MIC (Staphylococcus aureus [1]): 8 µM | MIC (Pseudomonas aeruginosa [2]): 8 µM | MIC (Acinetobacter baumannii [3]): 4 µM | MIC (Escherichia coli [4]): 16 µM | MIC (Escherichia coli [5]): 16 µM | fold change (FC) [6]: ~ 5 | fold change (FC) [7]: ~ 5 | Activity (Pseudomonas aeruginosa [8]): Active; Superior Activity Compared To Ll-37 | fractional inhibitory concentration index (FICI) (Staphylococcus aureus [9]): 1 | fractional inhibitory concentration index (FICI) (Pseudomonas aeruginosa [10]): 0.75 | inhibition at 5 µM (RAW264.7 [11]): 78.1% | inhibition at 2.5 µM (RAW264.7 [12]): 98.5% | inhibition at 5 µM (RAW264.7 [13]): 99% | Activity (Lipopolysaccharide (LPS)): 80% | inhibition [14]: 27% | inhibition [15]: Active | inhibition in vivo at 1 mg/kg (Acinetobacter baumannii [16]): 95.7% | Activity (Mus musculus [17]): 56.7% | Activity (Mus musculus [18]): Active | Activity (Mus musculus [19]): 99.7% | Activity (Mus musculus [20]): 90.7% | Activity (Mus musculus [21]): 96.7% | Activity (Mus musculus [22]): 91.8% | Activity (Mus musculus [23]): 99.9% | Activity (Mus musculus [24]): 97.9%

H-GVFRLKKWIKKVIKKWGK-NH2
MIC (Staphylococcus aureus [1]): 8 µM | MIC (Pseudomonas aeruginosa [2]): 16 µM | MIC (Acinetobacter baumannii [3]): 2 µM | MIC (Escherichia coli [4]): 32 µM | MIC (Escherichia coli [5]): 32 µM | fold change (FC) [6]: ~ 5 | fold change (FC) [7]: ~ 5 | Activity (Pseudomonas aeruginosa [8]): Active; Superior Activity Compared To Ll-37 | fractional inhibitory concentration index (FICI) (Staphylococcus aureus [9]): 0.75 | fractional inhibitory concentration index (FICI) (Pseudomonas aeruginosa [10]): 0.625 | inhibition at 5 µM (RAW264.7 [11]): 5.7% | inhibition at 2.5 µM (RAW264.7 [12]): 28.6% | inhibition at 5 µM (RAW264.7 [13]): 44.4%
